Experimental data: paper PMC6858323, “Multiple conformations facilitate PilT function in the type IV pilus” (Nature Communications, 2019)

Tests used:
[1] = molecular target: T1, PilT^Gm (PilT4 from Geobacter metallireducens) (Geobacter metallireducens, UniProt Q39VU6); experiment: X-ray crystal structure (OCOCOC); settings: preincubated with Mg2+ and ATP, unbound nucleotide removed, pH 7.6; nucleotide-binding site
T1 construct: gene pilT-4; hexamer; domains N2D residues 1-100, CTD 101-353

[2] = molecular target: T1, PilT^Gm (PilT4 from Geobacter metallireducens); experiment: X-ray crystal structure (anisotropic, about […] A); settings: 2 mM ANP, 2 mM MgCl2, pH 7.9 reservoir; four of six nucleotide-binding sites, ADP in the other two; CCOCCO conformation

T1 sequence (Q39VU6 entry or part of it): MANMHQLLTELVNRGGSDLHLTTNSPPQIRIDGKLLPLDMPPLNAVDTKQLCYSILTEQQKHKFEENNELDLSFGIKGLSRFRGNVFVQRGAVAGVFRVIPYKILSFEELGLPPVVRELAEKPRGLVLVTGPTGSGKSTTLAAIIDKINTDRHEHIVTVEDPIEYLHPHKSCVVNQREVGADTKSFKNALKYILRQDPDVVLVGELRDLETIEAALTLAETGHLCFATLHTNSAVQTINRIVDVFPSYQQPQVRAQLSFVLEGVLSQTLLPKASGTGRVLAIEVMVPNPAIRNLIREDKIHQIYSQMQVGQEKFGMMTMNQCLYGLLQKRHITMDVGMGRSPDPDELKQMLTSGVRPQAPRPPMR

Row | SMILES | X-ray crystal structure (OCOCOC) [1] | X-ray crystal structure (anisotropic, about 4.0 A) [2]
1 | Nc1ncnc2c1ncn2[C@@H]1O[C@H](COP(=O)(O)OP(=O)(O)O)[C@@H](O)[C@H]1O [ADP] | An isomorphous structure with high ADP occupancy was obtained | 
2 | Nc1ncnc2c1ncn2[C@@H]1O[C@H](COP(=O)(O)OP(=O)(O)NP(=O)(O)O)[C@@H](O)[C@H]1O [ANP] |  | density consistent with ANP could be modeled into four of the six nucleotide-binding sites
